Results published in PubChem BioAssay (NCI).
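In this assay, cells in 96-well plates receive the compound at five concentrations for 48 hours. Endpoints are linearly interpolated between the surrounding concentrations. GI50 marks 50% less growth. TGI denotes the concentration required for complete inhibition of growth.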

Legend:
Assay in all cases: inhibition of tumour cell growth, NCI panel, 48 h
[1] = test system: 786-0 renal
[2] = test system: A498 renal
[3] = test system: A549 NSCLC
[4] = test system: ACHN renal
[5] = test system: BT-549 breast
[6] = test system: CAKI-1 renal
[7] = test system: CCRF-CEM leukemia
[8] = test system: COLO 205 colon
[9] = test system: DU-145 prostate
[10] = test system: EKVX NSCLC
[11] = test system: HCC-2998 colon
[12] = test system: HCT-116 colon
[13] = test system: HCT-15 colon
[14] = test system: HL-60(TB) leukemia
[15] = test system: HOP-62 NSCLC
[16] = test system: HOP-92 NSCLC
[17] = test system: HS 578T breast
[18] = test system: HT29 colon
[19] = test system: IGROV1 ovarian
[20] = test system: K-562 leukemia
[21] = test system: KM12 colon
[22] = test system: LOX IMVI melanoma
[23] = test system: M14 melanoma
[24] = test system: MALME-3M melanoma
[25] = test system: MCF7 breast
[26] = test system: MDA-MB-231 breast
[27] = test system: MDA-MB-435
[28] = test system: MOLT-4 leukemia
[29] = test system: NCI-H226 lung
[30] = test system: NCI-H23 lung
[31] = test system: NCI-H460 lung
[32] = test system: NCI-H522 lung
[33] = test system: NCI/ADR-RES ovarian
[34] = test system: OVCAR-3 ovarian
[35] = test system: OVCAR-4 ovarian
[36] = test system: OVCAR-5 ovarian
[37] = test system: OVCAR-8 ovarian
[38] = test system: PC-3 prostate
[39] = test system: RPMI-8226 leukemia
[40] = test system: RXF 393 renal
[41] = test system: SF-268 CNS
[42] = test system: SF-295 CNS
[43] = test system: SF-539 CNS
[44] = test system: SK-MEL-2 melanoma
[45] = test system: SK-MEL-28 melanoma
[46] = test system: SK-MEL-5 melanoma
[47] = test system: SK-OV-3 ovarian
[48] = test system: SN12C renal
[49] = test system: SNB-19 CNS
[50] = test system: SNB-75 CNS
[51] = test system: SW-620 colon
[52] = test system: T-47D breast
[53] = test system: TK-10 renal
[54] = test system: U251 CNS
[55] = test system: UACC-257 melanoma
[56] = test system: UACC-62 melanoma
[57] = test system: UO-31 renal

`COc1ccc(-n2c(SCC(=O)Nc3ccc(-c4nc5ccccc5[nH]4)cc3)nc3ccccc3c2=O)cc1` was tested, and the GI50 [1] was 17.7 µM, the TGI [1] was 34.2 µM and the GI50 [2] was > 100 µM. For the same compound, the TGI [2] was > 100 µM, the GI50 [3] was 3.58 µM and the TGI [3] was 14.2 µM. The GI50 [4] was 17.1 µM, the TGI [4] was 33.7 µM and the GI50 [5] was 8.06 µM. The TGI [5] was 24.5 µM, the GI50 [6] was 29.7 µM and the TGI [6] was > 100 µM. The GI50 [7] was 6.15 µM, the TGI [7] was > 100 µM and the GI50 [8] was 28.3 µM. It also gave a TGI [8] of 76.6 µM, a GI50 [9] of 10.9 µM and a TGI [9] of 33 µM. For the same compound, the GI50 [10] was 47.2 µM, the TGI [10] was > 100 µM and the GI50 [11] was 14.3 µM. It also gave a TGI [11] of 46 µM, a GI50 [12] of 4.88 µM and a TGI [12] of 26.2 µM. It also gave a GI50 [13] of 2.95 µM, a TGI [13] of 12 µM and a GI50 [14] of 9.91 µM. The TGI [14] was > 100 µM, the GI50 [15] was 23.3 µM and the TGI [15] was 59.6 µM. The GI50 [16] was 12.7 µM, the TGI [16] was 31.3 µM and the GI50 [17] was 21.6 µM. The TGI [17] was 71.5 µM, the GI50 [18] was 15 µM and the TGI [18] was 36.5 µM. For the same compound, the GI50 [19] was 15.2 µM, the TGI [19] was 42.9 µM and the GI50 [20] was 4.82 µM. The TGI [20] was > 100 µM, the GI50 [21] was 51.4 µM and the TGI [21] was > 100 µM. For the same compound, the GI50 [22] was 2.1 µM, the TGI [22] was 3.91 µM and the GI50 [23] was 13.1 µM. It also gave a TGI [23] of 55.5 µM, a GI50 [24] of 2.58 µM and a TGI [24] of 16.2 µM. For the same compound, the GI50 [25] was 2.05 µM, the TGI [25] was 5.11 µM and the GI50 [26] was 16.2 µM. For the same compound, the TGI [26] was 49.6 µM, the GI50 [27] was 9.17 µM and the TGI [27] was 27.6 µM. For the same compound, the GI50 [28] was 5.85 µM, the TGI [28] was > 100 µM and the GI50 [29] was > 100 µM. For the same compound, the TGI [29] was > 100 µM, the GI50 [30] was 10.2 µM and the TGI [30] was 35.1 µM. For the same compound, the GI50 [31] was 3.39 µM, the TGI [31] was 12.1 µM and the GI50 [32] was 14.5 µM. For the same compound, the TGI [32] was 32.3 µM, the GI50 [33] was 16.7 µM and the TGI [33] was > 100 µM. For the same compound, the GI50 [34] was 18 µM, the TGI [34] was 39.7 µM and the GI50 [35] was 7.74 µM. For the same compound, the TGI [35] was 20.8 µM, the GI50 [36] was 23.7 µM and the TGI [36] was > 100 µM. It also gave a GI50 [37] of 18.1 µM, a TGI [37] of 39.6 µM and a GI50 [38] of 18 µM. For the same compound, the TGI [38] was 62.9 µM, the GI50 [39] was 3.72 µM and the TGI [39] was 70.5 µM. The GI50 [40] was 12.7 µM, the TGI [40] was 27.3 µM and the GI50 [41] was 42.9 µM. For the same compound, the TGI [41] was > 100 µM, the GI50 [42] was 13.3 µM and the TGI [42] was 27.9 µM. It also gave a GI50 [43] of 14.1 µM, a TGI [43] of 27.8 µM and a GI50 [44] of 50.7 µM. For the same compound, the TGI [44] was > 100 µM, the GI50 [45] was 3.52 µM and the TGI [45] was 13.4 µM. The GI50 [46] was 14 µM, the TGI [46] was 30.4 µM and the GI50 [47] was > 100 µM. The TGI [47] was > 100 µM, the GI50 [48] was 11.3 µM and the TGI [48] was 25.6 µM. It also gave a GI50 [49] of 17.9 µM, a TGI [49] of 60.2 µM and a GI50 [50] of 19.9 µM. For the same compound, the TGI [50] was 91.9 µM, the GI50 [51] was 6.63 µM and the TGI [51] was 42.5 µM. The GI50 [52] was 17.3 µM, the TGI [52] was 36.7 µM and the GI50 [53] was 21.6 µM. The TGI [53] was 42 µM, the GI50 [54] was 15.1 µM and the TGI [54] was 31.5 µM. It also gave a GI50 [55] of 19 µM, a TGI [55] of 39.2 µM and a GI50 [56] of 15.8 µM. It also gave a TGI [56] of 30.5 µM, a GI50 [57] of 11.8 µM and a TGI [57] of 29.1 µM.
